The text below walks through data of patent publication US20220340633A1 (Adepthera LLC, priority 2016, published 2022).

Where two headings read alike, the source gives them in different places. Positions of bridges follow the written chain, without caps; N, C: chain ends. Non-standard residues stand in square brackets, D forms with d. Residues, ends and D or L forms follow the SMILES beside them. *: point of attachment. Palmitoyl = CCCCCCCCCCCCCCCC(=O)*; AEEA = NCCOCCOCC(=O)O

For experiment [1], the target named is T1, CLR/RAMP2 receptor (Homo sapiens, UniProt O60895+Q16602).
T1 construct: host or cells: CHO-K1 cells
Put plainly: CLR/RAMP2 arrestin receptor activation assay (agonist). In kind it is cell-based. The following applies: CHO-K1, read-out: CLR/RAMP 2 Max Activity % of positive control, CHO-K1 cells; % of positive control (ADM).
Method: Using a receptor activation assay, the dose-dependent stimulatory response of peptide agonists of the present invention on a CLR/RAMP1 receptor, a CLR/RAMP2, or a CLR/RAMP3 receptor complex was determined. A cell line carrying the recombinant CLR/RAMP1, CLR/RAMP2, or a CLR/RAMP3 receptor was employed in the assay. Peptide agonist activities were tested, in duplicate, at 10 different concentrations, starting with 1.0 μM and serially diluted 3-fold, in DMSO. […] The CLR/RAMP1 cAMP, CLR/RAMP2 arrestin assays, and CLR/RAMP3 cAMP (DiscoveRx, Fremont, Calif.) were used.

Experiment [2] has as its target CLR/RAMP1 receptor (Homo sapiens, UniProt O60894+Q16602). Put plainly: CLR/RAMP1 cAMP receptor activation assay (agonist). It is filed as cell-based. Details: host or cells: 1321N1 cells. Conditions: % of positive control (β-CGRP).
Where [3] appears, read: 1321-N1, read-out: CLR/RAMP 1 Max Activity % of positive control, 1321N1 cells.

Chain of CLR/RAMP1 receptor (Q16602 23-461): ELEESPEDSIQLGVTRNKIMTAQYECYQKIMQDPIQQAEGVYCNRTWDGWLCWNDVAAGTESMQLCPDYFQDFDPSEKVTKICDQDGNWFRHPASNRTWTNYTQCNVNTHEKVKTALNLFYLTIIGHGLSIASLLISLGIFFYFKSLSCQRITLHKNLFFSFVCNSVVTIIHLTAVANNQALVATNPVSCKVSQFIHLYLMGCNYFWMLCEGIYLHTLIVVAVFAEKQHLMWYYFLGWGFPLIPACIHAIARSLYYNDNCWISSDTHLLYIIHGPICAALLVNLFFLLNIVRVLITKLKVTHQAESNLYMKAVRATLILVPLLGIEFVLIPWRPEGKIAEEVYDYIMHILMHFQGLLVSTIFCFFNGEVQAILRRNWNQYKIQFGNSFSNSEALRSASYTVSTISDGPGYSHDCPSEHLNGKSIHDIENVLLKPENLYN
Chain of CLR/RAMP1 receptor (O60894 27-148): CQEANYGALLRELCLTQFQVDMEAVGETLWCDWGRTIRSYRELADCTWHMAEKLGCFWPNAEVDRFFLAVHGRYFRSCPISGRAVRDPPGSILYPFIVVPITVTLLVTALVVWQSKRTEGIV
T1 sequence (Q16602 23-461): as the sequence (Q16602 23-461) above
T1 sequence (O60895 43-175): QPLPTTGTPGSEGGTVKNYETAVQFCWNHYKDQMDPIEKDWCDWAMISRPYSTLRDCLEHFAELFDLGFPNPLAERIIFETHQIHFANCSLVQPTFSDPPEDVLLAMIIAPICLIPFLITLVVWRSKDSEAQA

As to `CCCCCCCCCCCCCCCC(=O)NCCCC[C@H](NC(=O)[C@@H](NC(=O)COCCOCCN)[C@@H](C)O)C(=O)N[C@@H](CCCCN)C(=O)N[C@H](C(=O)N[C@@H](CC(C)C)C(=O)N[C@@H](CCCNC(=N)N)C(=O)N[C@H](C(=O)NCC(=O)N[C@H]1CSSC[C@@H](C(=O)N[C@H](C(=O)N[C@H](C(=O)N[C@@H](CCC(N)=O)C(=O)N[C@@H](CCCCN)C(=O)N[C@@H](CC(C)C)C(=O)N[C@@H](C)C(=O)N[C@@H](Cc2c[nH]cn2)C(=O)N[C@@H](CCC(N)=O)C(=O)N[C@H](C(=O)N[C@@H](Cc2ccc(O)cc2)C(=O)N[C@@H](CCC(N)=O)C(=O)N[C@@H](Cc2ccccc2)C(=O)N[C@H](C(=O)N[C@@H](CC(=O)O)C(=O)N[C@@H](CCCCN)C(=O)N[C@@H](CC(=O)O)C(=O)N[C@@H](CCCCN)C(=O)N[C@@H](CC(=O)O)C(=O)N[C@@H](CC(N)=O)C(=O)N[C@H](C(=O)N[C@@H](C)C(=O)N2CCC[C@H]2C(=O)N[C@H](C(=O)N[C@@H](CC(=O)O)C(=O)N2CCC[C@H]2C(=O)N[C@@H](CO)C(=O)N[C@@H](CO)C(=O)N2CCC[C@H]2C(=O)N[C@@H](Cc2c[nH]cn2)C(=O)N[C@@H](CO)C(=O)N[C@@H](Cc2ccc(O)cc2)C(N)=O)C(C)C)C(C)C)[C@@H](C)O)[C@@H](C)CC)C(C)C)[C@@H](C)O)NC(=O)[C@H]([C@@H](C)O)NC(=O)CNC(=O)[C@H](Cc2ccccc2)NC(=O)[C@H](CCCNC(=N)N)NC1=O)[C@@H](C)O)[C@@H](C)O` [SEQ ID NO: 42], the Emax stood at 76% in experiment [1] and 56% in experiment [2] (setting [3]).

`CCCCCCCCCCCCCCCC(=O)NCCCC[C@H](NC(=O)COCCOCCN)C(=O)N[C@H]1CSSC[C@@H](C(=O)N[C@H](C(=O)N[C@H](C(=O)N[C@@H](CCC(N)=O)C(=O)N[C@@H](CCCCN)C(=O)N[C@@H](CC(C)C)C(=O)N[C@@H](C)C(=O)N[C@@H](Cc2c[nH]cn2)C(=O)N[C@@H](CCC(N)=O)C(=O)N[C@H](C(=O)N[C@@H](Cc2ccc(O)cc2)C(=O)N[C@@H](CCC(N)=O)C(=O)N[C@@H](Cc2ccccc2)C(=O)N[C@H](C(=O)N[C@@H](CC(=O)O)C(=O)N[C@@H](CCCCN)C(=O)N[C@@H](CC(=O)O)C(=O)N[C@@H](CCCCN)C(=O)N[C@@H](CC(=O)O)C(=O)N[C@@H](CC(N)=O)C(=O)N[C@@H](CO)C(=O)N[C@@H](C)C(=O)N2CCC[C@H]2C(=O)N[C@H](C(=O)N[C@@H](CC(=O)O)C(=O)N2CCC[C@H]2C(=O)N[C@@H](CO)C(=O)N[C@@H](CO)C(=O)N2CCC[C@H]2C(=O)N[C@@H](Cc2c[nH]cn2)C(=O)N[C@@H](CO)C(=O)N[C@@H](Cc2ccc(O)cc2)C(N)=O)C(C)C)[C@@H](C)O)[C@@H](C)CC)C(C)C)[C@@H](C)O)NC(=O)[C@H]([C@@H](C)O)NC(=O)CNC(=O)[C@H](Cc2ccccc2)NC(=O)[C@H](CCCNC(=N)N)NC1=O` [SEQ ID NO: 43] (H-[AEEA]K(Palmitoyl)CRFGTCTVQKLAHQIYQFTDKDKDNSAPVDPSSPHSY-NH2; disulfide 3-8): the Emax in experiment [1] was 30%; in experiment [2] (setting [3]), 39%. Consider `CSCC[C@H](NC(=O)[C@H](CC(C)C)NC(=O)[C@H](CCC(N)=O)NC(=O)[C@H](Cc1c[nH]c2ccccc12)NC(=O)[C@H](CC(C)C)NC(=O)[C@H](Cc1c[nH]cn1)NC(=O)[C@H](C)NC(=O)[C@H](CC(C)C)NC(=O)[C@H](CCCCN)NC(=O)[C@H](CCC(N)=O)NC(=O)[C@@H](NC(=O)[C@@H](NC(=O)[C@@H]1CSSC[C@H](NC(=O)CNC(=O)[C@@H](NC(C)=O)C(C)C)C(=O)N[C@@H](CCCNC(=N)N)C(=O)N[C@@H](Cc2ccccc2)C(=O)NCC(=O)N[C@@H]([C@@H](C)O)C(=O)N1)[C@@H](C)O)C(C)C)C(=O)NCC(=O)N1CCC[C@H]1C(=O)N[C@@H](C)C(=O)NCC(=O)N[C@@H](CCCNC(=N)N)C(=O)N[C@@H](CCC(N)=O)C(=O)N[C@@H](CC(=O)O)C(=O)N[C@@H](CO)C(=O)N[C@@H](C)C(=O)N1CCC[C@H]1C(=O)N[C@H](C(=O)N[C@@H](CC(=O)O)C(=O)N1CCC[C@H]1C(=O)N[C@@H](CO)C(=O)N[C@@H](CO)C(=O)N1CCC[C@H]1C(=O)N[C@@H](Cc1c[nH]cn1)C(=O)N[C@@H](CO)C(=O)N[C@@H](Cc1ccc(O)cc1)C(N)=O)C(C)C` [SEQ ID NO: 58], for which, in experiment [2] (setting [3]), the Emax was 0%. With `CCCCCCCCCCCCCCCC(=O)NCCCC[C@H](NC(=O)COCCOCCN)C(=O)NCC(=O)N[C@H]1CSSC[C@@H](C(=O)N[C@H](C(=O)N[C@H](C(=O)N[C@@H](CCC(N)=O)C(=O)N[C@@H](CCCCN)C(=O)N[C@@H](CC(C)C)C(=O)N[C@@H](C)C(=O)N[C@@H](Cc2c[nH]cn2)C(=O)N[C@@H](CCC(N)=O)C(=O)N[C@H](C(=O)N[C@@H](Cc2ccc(O)cc2)C(=O)N[C@@H](CCC(N)=O)C(=O)N[C@@H](Cc2ccccc2)C(=O)N[C@H](C(=O)N[C@@H](CC(=O)O)C(=O)N[C@@H](CCCCN)C(=O)NCC(=O)N[C@@H](CCCNC(=N)N)C(=O)N[C@@H](CCC(N)=O)C(=O)N[C@@H](CC(=O)O)C(=O)N[C@@H](CO)C(=O)N[C@@H](C)C(=O)N2CCC[C@H]2C(=O)N[C@H](C(=O)N[C@@H](CC(=O)O)C(=O)N2CCC[C@H]2C(=O)N[C@@H](CO)C(=O)N[C@@H](CO)C(=O)N2CCC[C@H]2C(=O)N[C@@H](Cc2c[nH]cn2)C(=O)N[C@@H](CO)C(=O)N[C@@H](Cc2ccc(O)cc2)C(N)=O)C(C)C)[C@@H](C)O)[C@@H](C)CC)C(C)C)[C@@H](C)O)NC(=O)[C@H]([C@@H](C)O)NC(=O)CNC(=O)[C@H](Cc2ccccc2)NC(=O)[C@H](CCCNC(=N)N)NC1=O` [SEQ ID NO: 68], the Emax in experiment [1] was found to be 70%. For the molecule `CSCC[C@H](NC(=O)CNC(=O)CNC(=O)[C@H](CO)NC(=O)[C@H](CCCNC(=N)N)NC(=O)[C@H](CO)NC(=O)[C@H](CC(C)C)NC(=O)[C@H](CC(C)C)NC(=O)CNC(=O)[C@H](C)NC(=O)[C@H](CC(C)C)NC(=O)[C@H](CCCNC(=N)N)NC(=O)[C@H](Cc1c[nH]cn1)NC(=O)[C@@H](NC(=O)[C@@H](NC(=O)[C@@H]1CSSC[C@H](NC(=O)[C@H](C)N)C(=O)N[C@@H](CC(N)=O)C(=O)N[C@@H]([C@@H](C)O)C(=O)N[C@@H](C)C(=O)N[C@@H]([C@@H](C)O)C(=O)N1)C(C)C)[C@@H](C)O)C(=O)N[C@H](C(=O)N[C@@H](CCCCN)C(=O)N[C@@H](CO)C(=O)N[C@@H](CC(N)=O)C(=O)N[C@@H](Cc1ccccc1)C(=O)N[C@H](C(=O)N1CCC[C@H]1C(=O)N[C@H](C(=O)N[C@@H](CC(N)=O)C(=O)N[C@H](C(=O)NCC(=O)N[C@@H](CO)C(=O)N[C@@H](CCCCN)C(=O)N[C@@H](C)C(=O)N[C@@H](Cc1ccccc1)C(N)=O)C(C)C)[C@@H](C)O)C(C)C)C(C)C` [Wild type CGRP-β positive, reference compound], the Emax in experiment [2] (1321-N1, 1321N1 cells, read-out: CLR/RAMP 1 Max Activity % of positive control) stood at 100%.
